Results as given in patent US8987321B2, “Lisofylline analogs and methods for use” (University of Virginia Patent Foundation, priority 2005, dated 2015).

Experiments:
[1] = Metabolic stability; assay type: in vitro ADME
Method: (§1) Further evaluations were performed for some of the LSF analogs in MDS assays, solubility, oral bioavailability, and stability (see Table 1).

[2] = biological target: rCYP 2D6 (Homo sapiens, UniProt P10635); test: rCYP450 inhibition, 2D6; assay type: in vitro ADME; parameters: concentration or dose not given beside the values
rCYP 2D6, sequence (P10635 whole entry): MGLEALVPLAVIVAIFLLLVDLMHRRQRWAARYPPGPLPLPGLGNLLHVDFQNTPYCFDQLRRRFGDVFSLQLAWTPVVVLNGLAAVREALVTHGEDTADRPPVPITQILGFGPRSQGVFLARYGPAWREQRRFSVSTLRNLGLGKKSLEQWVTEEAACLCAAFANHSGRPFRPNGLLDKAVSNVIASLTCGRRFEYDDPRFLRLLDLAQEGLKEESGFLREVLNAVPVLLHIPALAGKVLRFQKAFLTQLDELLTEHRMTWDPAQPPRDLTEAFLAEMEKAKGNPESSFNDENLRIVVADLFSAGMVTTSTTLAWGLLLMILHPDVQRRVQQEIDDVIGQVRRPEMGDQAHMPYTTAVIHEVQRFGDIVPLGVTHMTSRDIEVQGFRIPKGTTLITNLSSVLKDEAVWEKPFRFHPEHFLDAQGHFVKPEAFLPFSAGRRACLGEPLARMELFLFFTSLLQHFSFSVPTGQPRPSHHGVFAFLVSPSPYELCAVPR
Method: (§2) Further evaluations were performed for some of the LSF analogs in MDS assays, solubility, oral bioavailability, and stability (see Table 1). Analogs having greater than 50% inhibitory activity were considered to have high activity; analogs having from 20-49% inhibitory activity were considered to have medium activity; and analogs having less than 20 inhibitory activity were considered to have low activity

[3] = biological target: rCYP 2C19 (Homo sapiens, UniProt P33261); test: rCYP450 inhibition, 2C19; assay type: in vitro ADME; parameters: concentration or dose not given beside the values
rCYP 2C19, sequence (P33261 whole entry): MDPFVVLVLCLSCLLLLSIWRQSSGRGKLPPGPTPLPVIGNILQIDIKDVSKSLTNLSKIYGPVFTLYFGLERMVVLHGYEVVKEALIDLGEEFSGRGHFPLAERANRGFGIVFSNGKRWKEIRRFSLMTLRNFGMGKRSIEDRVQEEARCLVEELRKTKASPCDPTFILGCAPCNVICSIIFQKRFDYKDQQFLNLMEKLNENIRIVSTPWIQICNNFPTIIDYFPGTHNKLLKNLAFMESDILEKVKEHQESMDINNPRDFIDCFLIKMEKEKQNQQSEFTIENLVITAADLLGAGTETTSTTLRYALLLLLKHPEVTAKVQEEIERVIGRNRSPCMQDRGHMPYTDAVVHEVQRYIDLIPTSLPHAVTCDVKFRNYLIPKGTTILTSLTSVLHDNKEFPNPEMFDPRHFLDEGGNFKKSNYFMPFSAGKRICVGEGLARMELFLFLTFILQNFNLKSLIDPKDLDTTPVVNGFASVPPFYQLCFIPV
Method: as §2

[4] = biological target: T1, rCYP 1A2 (Homo sapiens, UniProt P05177); test: rCYP450 inhibition, 1A2; assay type: in vitro ADME; parameters: concentration or dose not given beside the values
T1 sequence (P05177 1-516): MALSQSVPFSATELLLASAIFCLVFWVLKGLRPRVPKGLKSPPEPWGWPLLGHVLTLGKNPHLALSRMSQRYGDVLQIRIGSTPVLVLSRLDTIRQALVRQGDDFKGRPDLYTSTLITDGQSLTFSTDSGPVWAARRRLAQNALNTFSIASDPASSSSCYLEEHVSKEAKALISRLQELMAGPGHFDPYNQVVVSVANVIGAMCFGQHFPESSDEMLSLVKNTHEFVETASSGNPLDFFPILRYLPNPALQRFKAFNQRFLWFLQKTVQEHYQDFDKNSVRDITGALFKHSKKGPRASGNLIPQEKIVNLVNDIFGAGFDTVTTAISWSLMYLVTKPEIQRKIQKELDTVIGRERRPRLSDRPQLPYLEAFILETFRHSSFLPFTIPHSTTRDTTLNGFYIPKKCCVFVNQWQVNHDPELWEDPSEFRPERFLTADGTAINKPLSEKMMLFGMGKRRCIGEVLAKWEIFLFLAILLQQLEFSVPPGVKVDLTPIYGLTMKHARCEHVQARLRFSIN
Method: as §2

[5] = biological target: rCYP 3A4 (Homo sapiens, UniProt P08684); test: rCYP450 inhibition, 3A4; assay type: in vitro ADME; parameters: concentration or dose not given beside the values
rCYP 3A4, sequence (P08684 whole entry): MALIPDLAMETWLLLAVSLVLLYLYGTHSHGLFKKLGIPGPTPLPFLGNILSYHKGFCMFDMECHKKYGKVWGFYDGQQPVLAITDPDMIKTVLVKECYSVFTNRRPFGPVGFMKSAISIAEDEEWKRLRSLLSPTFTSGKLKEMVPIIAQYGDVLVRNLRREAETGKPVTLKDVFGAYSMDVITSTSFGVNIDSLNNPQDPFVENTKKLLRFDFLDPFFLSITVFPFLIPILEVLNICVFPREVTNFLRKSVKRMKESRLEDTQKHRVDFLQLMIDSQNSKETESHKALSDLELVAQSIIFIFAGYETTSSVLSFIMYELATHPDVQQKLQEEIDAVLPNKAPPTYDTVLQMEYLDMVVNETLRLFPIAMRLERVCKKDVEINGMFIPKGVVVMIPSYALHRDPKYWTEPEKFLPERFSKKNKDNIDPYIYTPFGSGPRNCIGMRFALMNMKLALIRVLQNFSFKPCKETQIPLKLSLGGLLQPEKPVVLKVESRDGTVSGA
Method: as §2

[6] = biological target: rCYP 2C9 (Homo sapiens, UniProt P11712); test: rCYP450 inhibition, 2C9; assay type: in vitro ADME; parameters: concentration or dose not given beside the values
rCYP 2C9, sequence (P11712 whole entry): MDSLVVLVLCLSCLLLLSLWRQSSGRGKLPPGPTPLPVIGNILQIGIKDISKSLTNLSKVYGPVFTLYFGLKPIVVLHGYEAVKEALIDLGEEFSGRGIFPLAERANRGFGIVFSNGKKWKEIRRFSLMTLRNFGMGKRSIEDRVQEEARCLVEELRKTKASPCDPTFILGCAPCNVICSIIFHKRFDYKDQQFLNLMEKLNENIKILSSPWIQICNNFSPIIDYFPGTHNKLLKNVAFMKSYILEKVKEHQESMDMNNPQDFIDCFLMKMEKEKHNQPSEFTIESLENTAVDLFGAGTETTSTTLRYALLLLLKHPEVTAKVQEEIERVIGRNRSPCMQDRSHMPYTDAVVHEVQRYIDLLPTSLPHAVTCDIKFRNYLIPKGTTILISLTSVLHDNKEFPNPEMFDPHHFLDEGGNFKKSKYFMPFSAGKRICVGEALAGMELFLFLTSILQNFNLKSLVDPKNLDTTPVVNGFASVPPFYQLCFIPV
Method: as §2

[7] = test system: mouse-origin β-TC6 cells; test: Insulin release, pancreatic β cell lines; assay type: cell-based; conditions: mouse islet cell line
Method: (§3) The disclosed analogs (CPW1-15) were evaluated in pancreatic β cell lines for apoptosis protection after treatment with inflammatory cytokines (reflected by reduced OD450) and insulin-release (see FIGS. 5 and 6).
At the end of treatment, cells are washed with Krebs-Ringer-bicarbonate-HEPES buffer (KR13) containing in mM: 134 NaCl, 4.7 KCl, 1.2 KH2P04, 1.2 MgS04, 1.0 CaCI2, 10 HEPES, and 0.1% bovine serum albumin at 37° C., at a pH of 7.4. The cells are pre incubated in the same buffer for 30 min followed by 60-min incubation in KRB supplemented with 15 mM D-glucose (J. T. Baker, Phillisburg, N.J.). The supernatant is harvested and subjected to centrifugation to eliminate residue cells. Insulin secreted into the supernatant is measured using EIA with mouse insulin as a standard. The results are illustrated in FIGS. 9A-9P.

[8] = test system: Caco-2; test: Caco-2 permeability test; assay type: in vitro ADME
[9] = Solubility; assay type: physicochemical; conditions: in words
Method: as §1

[10] = test system: cytochrome p450; test: cytochrome p450 inhibition, overall statement; assay type: in vitro ADME
Description: Analogs having greater than 50% inhibitory activity were considered to have high activity; analogs having from 20-49% inhibitory activity were considered to have medium activity; and analogs having less than 20 inhibitory activity were considered to have low activity

[11] = test system: INS-1 cells; test: Protection of INS-1 cells from cytokine-induced cell death; assay type: cell-based, rat
Method: The effects of LSF analogs on β-cells in the […] insulin-secreting INS-1 cell line were investigated. Cells were maintained in RPMI 1640 medium (Life Technologies, Inc., Gaithersburg, Md.) supplemented with 10% heat-inactivated FBS, 10 mm HEPES, 200 μm L-glutamine, 1 mm sodium pyruvate, […] 2-mercaptoethanol, 50 U/ml penicillin, and 50 μg/ml streptomycin at pH 7.4. The cells were cultured at 37° C. in a humidified incubator supplied with 5% carbon dioxide. Fresh medium was replaced every 2 days. The cells were plated at a density of […]. Culture vessels were coated with poly-D-lysine and gelatin (Sigma, St. Louis, Mo.) to retain detached and dead cells so that seeding cell numbers reflect the actual cell numbers after all treatment conditions. INS-1 cells were treated with the combination of recombinant mouse IL-1β (5 ng/ml), IFNγ (100 ng/ml), and TNFα (10 ng/ml; R&D Systems, Inc., Minneapolis, Minn.) suspended in complete RPMI medium. LSF (provided by Cell Therapeutics, Inc., Seattle, Wash.) and analogs were added simultaneously with the cytokines in complete RPMI medium. All treatments were performed for 18 hours.
INS-1 cells were treated with a combination of recombinant IL-1β, INFγ, and TNFα with 10^−5-10^3 μM LSF and its analogs. […] There was no further increase in β-cell protection when the LSF concentration was increased from 10^−2 to 10^2 μM. […] No further increases in β-cell protection were observed when analog concentrations were increased.
The effects of LSF analogs on insulin secretion in INS-1 cells with and without inflammatory cytokines. β-Cells were treated with apoptosis detecting dye for 2-3 hours at room temperature. Apoptotic cells were recognized with purple-red color under a microscope. After washing to eliminate free dye and adding dye release reagent, color density was quantified by reading at OD 450 nm. […] Insulin secreted into the supernatant was measured by RIA with mouse insulin as a standard. […]

[12] = test system: human islets; test: Insulin secretion in human islets exposed to cytokines; assay type: cell-based; conditions: human islet, in the presence of inflammatory cytokines
Method: (§4) Four compounds (CPW7, CPW8, CPW11, and CPW12) were also evaluated on human islets for the induction of insulin secretion, intracellular ATP concentrations and the effect of reducing cell death exposed to cytokines (combination of human IL-1β, IFN-γ, and TNF-α). The results are illustrated FIGS. 7A-7D.

[13] = test system: human islets; test: Cell death of human islets exposed to cytokines; assay type: cell-based; conditions: human β-cells
Method: as §4

[14] = test system: human islets; test: Intracellular ATP concentrations (mitochondrial function) in human islets; assay type: cell-based; conditions: human β-cells
Method: as §4

[15] = test system: mouse-origin β-TC6 cells; test: β-cell apoptosis protection after inflammatory cytokines, pancreatic β cell lines; assay type: cell-based; conditions: mouse islet cell line
Method: as §3
The β-TC6 cell line is maintained in RPMI 1640 medium (Life Technologies, Rockville, Md.) supplemented with 10% heat inactivated fetal bovine serum, 10 mM HEPES, […] L-glutamine, 50 units/ml penicillin and 50 μg/ml streptomycin at pH 7.4. The cells are cultured in a 37° C., humidified incubator supplied with 5% carbon dioxide. Fresh media is replaced every two days. Unless otherwise stated, the cells are plated at a density of 10^5/cm^2. Culture vessels (dishes and chamber slides) used for experiments were coated with poly-D-lysine and gelatin (Sigma, St. Louis, Mo.) to retain detached and dead cells so that seeding cell numbers reflect the actual cell numbers after all treatment conditions.
β-TC6 cells are treated with vehicle alone or with the combination of recombinant mouse IL-1β (5 ng/ml), IFN-γ (100 ng/ml) and TNF-α (10 ng/ml) (R&D Systems, Minneapolis, Minn.) suspended in complete RPMI medium. LSF (Cell Therapeutics, Inc. Seattle, Wash.) or the analogs are added simultaneously with the cytokines in complete RPMI medium in the concentrations ranging 1 nM-[…]. All treatments are conducted for 18 hours. The results are illustrated in FIGS. 5A-8P.

[16] = test system: β-cells; conditions: maintains insulin secretory capability and cell viability; cited from earlier work
[17] = test system: INS-1 cells; test: Insulin secretion in INS-1 cells; assay type: cell-based, rat; conditions: 20 μM
Method: The effects of LSF analogs on insulin secretion in INS-1 cells with and without inflammatory cytokines. β-Cells were treated with apoptosis detecting dye for 2-3 hours at room temperature. Apoptotic cells were recognized with purple-red color under a microscope. After washing to eliminate free dye and adding dye release reagent, color density was quantified by reading at OD 450 nm. At the end of treatment, cells were washed with Krebs-Ringer-bicarbonate-HEPES buffer (KRB) containing 134 mm NaCl, 4.7 mm KCl, 1.2 mm KH2PO4, 1.2 mm MgSO4, 1.0 mm CaCl2, 10 mm HEPES, and 0.1% BSA at 37° C., pH 7.4. The cells were preincubated in the same buffer for 30 min, followed by 60-min incubation in KRB supplemented with 15 mM D-glucose (J. T. Baker, Phillipsburg, N.J.). The supernatant was harvested and subjected to centrifugation to eliminate residue cells. Insulin secreted into the supernatant was measured by RIA with mouse insulin as a standard. The cells are maintained in basal (3 mM) and glucose-stimulated (28 mM). […] Insulin secretion in INS-1 cells: (a) LSF, (b) compound CPW11, and (c) compound CPW12. […]

[18] = test system: non-obese diabetic (NOD) mouse; conditions: cited from earlier work
[19] = cited from earlier work

| SMILES | Metabolic Stability Percent Remaining [1] [%] | rCYP % Inhibition 2D6 [2] [%] | rCYP % Inhibition 2C19 [3] [%] | rCYP % Inhibition 1A2 [4] [%] | rCYP % Inhibition 3A4 [5] [%] | rCYP % Inhibition 2C9 [6] [%] | also measured |
| --- | --- | --- | --- | --- | --- | --- | --- |
| CC(O)CCCCN1C(=O)C(C)N(CCCCC(C)O)C(=O)C1C (mixture of isomers) [CPW6] | 77 | 16 | 14 | 13 | 14 | 3 | – |
| CC(=O)O[C@H](C)CCCCn1ccc2cc(Br)ccc21 [CPW1] | 0 | 80 | 99 | 58 | 57 | 86 | – |
| C[C@@H]([O-])CCCCN1C(=O)COc2ccccc21.[Na+] [CPW7] | – | 8 | 12 | 12 | 12 | 5 | – |
| C[C@@H](O)CCCCn1c(=O)c2c(ncn2C)n(C)c1=O [LSF, 1-(5-R-hydroxyhexyl)-3,7-dimethylxanthine] | – | – | – | – | – | – | protection of β-cells from inflammatory cytokine-mediated injuries [16]: able to protect β-cells; concentration of maximum protective effect ([11]; IL-1β + IFNγ + TNFα, 18 hours): 10^−2 μM; insulin release [17]: Insulin release was observed; spontaneous Type 1 diabetes development [18]: significantly reduce; oral bioavailability [19]: not orally bioavailable |

Further lines, with some results ahead:

| Metabolic Stability Percent Remaining [1] [%] | rCYP % Inhibition 2D6 [2] [%] | rCYP % Inhibition 2C19 [3] [%] | rCYP % Inhibition 1A2 [4] [%] | rCYP % Inhibition 3A4 [5] [%] | rCYP % Inhibition 2C9 [6] [%] | SMILES | also measured |
| --- | --- | --- | --- | --- | --- | --- | --- |
| 0 | 50 | 94 | 56 | 32 | 38 | C[C@@H](O)CCCCn1ccc2cc(Br)ccc21 [CPW4] | – |
| 45 | 10 | 24 | 7 | 12 | 5 | CC(=O)O[C@H](C)CCCCn1[nH]c(=O)n(-c2ccccc2)c1=O [CPW8] | – |
| 106 | 2 | 1 | 5 | −4 | −12 | C[C@@H](O)CCCCn1[nH]c(=O)n(-c2ccccc2)c1=O [CPW9] | – |
| 75 | 12 | 30 | 18 | 4 | 30 | C[C@@H](O)CCCCOc1n[nH]c(=O)c2ccccc12 [CPW12] | stability ([1]; in words): acceptable; insulin release [7]: positive effects; Caco-2 permeability test results [8]: could be orally absorbed from the GI track; solubility [9]: acceptable; cytochrome p450 inhibition [10]: low (less than 20 inhibitory activity); β-cell protective activity compared with LSF ([11]; concentration of 10^−2 μM): comparative activity with LSF; protective effects on β-cells ([11]; cytokine-induced cell death): effective at low concentrations; insulin secretion [12]: positive effects; maintaining cell viability [13]: beneficial effect; maintaining mitochondrial function [14]: beneficial effect; β-cell protection [15]: positive effects |
| 38 | −28 | 89 | 25 | −159 | 92 | C[C@@H](O)CCCCOc1nn(CCCC[C@@H](C)O)c(=O)c2ccccc12 [CPW13] | – |
| 19 | 73 | 98 | 95 | 50 | 86 | C[C@@H](O)CCCCN1c2ccccc2Oc2ccccc21 [CPW20] | – |
